# Measurements: paper PMC11510666, “Thiazolidinedione-Conjugated Lupeol Derivatives as Potent Anticancer Agents Through a Mitochondria-Mediated Apoptotic Pathway” (Molecules, 2024)
# Legend:
# human lung cancer A549 = assay: MTT antiproliferative assay, A549; assay type: cell-based; conditions: 48 h, mean ± SD, three independent experiments
# Protocol: (§1) These cell lines were cultured in Dulbecco's Modified Eagle Medium containing 10% (v/v) fetal bovine serum (FBS, Wisent) and 1% (v/v) Penicillin-Streptomycin Solution mixture (Beyotime, Shanghai, China) at 37 °C under 5% CO2. An MTT assay evaluated the cytotoxicity of lupeol derivatives toward the A549, MCF-7, HepG2, and LO2 cell lines. The cells were inoculated into 96-well plates (3 × 10^3 cells/well) and cultured for 24 h at 37 °C in 5% CO2. After that, a gradient concentration of the test drug was added to continue the incubation for 48 h. Subsequently, the MTT solution continued to incubate with the cells for 4 h. Afterward, the upper waste layer was discarded, and DMSO was added ([…], Tianjin, China). After the formazan completely dissolved, the absorbance of each well at 490 nm was measured with a microplate reader. The mean values were derived from three independent experiments.
# [1] = system: human breast cancer MCF-7; assay: MTT antiproliferative assay, MCF-7; assay type: cell-based; conditions: 48 h, mean ± SD, three independent experiments
# Protocol: as §1
# [2] = system: human hepatocarcinoma HepG2; assay: MTT antiproliferative assay, HepG2; assay type: cell-based; conditions: for SI (selectivity index): IC50 values on L02 cells/HepG2 cells; for IC50: MTT, 48 h, mean ± SD, three independent experiments
# Protocol: as §1
# human hepatic LO2 cells = conditions: read-out: IC50 LO2; MTT, 48 h, mean ± SD, three independent experiments
# Protocol: as §1
SMILES,IC50 (human lung cancer A549),IC50 [1],IC50 [2],SI (selectivity index) [2],IC50 (human hepatic LO2 cells)
"C=C(C)C1CCC2(C)CCC3(C)C(CCC4C5(C)CCC(OC(=O)NCCNC(=O)CN6C(=O)SC(=Cc7ccc(C(C)(C)C)cc7)C6=O)C(C)(C)C5CCC43C)C12 (stereo not drawn) [Compound 12d, Lupeol-3-[(1-Ethylenediaminyl)-4]-5-(4-Tert-Butylphenyl)-2,4-Thiazolidinedione]",16.4 ± 0.43 µM,9.12 ± 0.24 µM,15.8 ± 0.68 µM,3.80,59.9 ± 1.03 µM
"C=C(C)C1CCC2(C)CCC3(C)C(CCC4C5(C)CCC(OC(=O)NCCNC(=O)CN6C(=O)SC(=Cc7cccs7)C6=O)C(C)(C)C5CCC43C)C12 (stereo not drawn) [Compound 12h, Lupeol-3-[(1-Ethylenediaminyl)-4]-5-(2-Thienylmethylene)-2,4-Thiazolidinedione]",13.4 ± 1.08 µM,17.3 ± 1.28 µM,18.6 ± 1.49 µM,–,77.5 ± 1.27 µM

# Further compounds by falling IC50 (human lung cancer A549), results first:
IC50 (human lung cancer A549),IC50 [1],IC50 [2],SMILES,SI (selectivity index) [2],IC50 (human hepatic LO2 cells)
15.7 ± 1.42 µM,16.4 ± 0.87 µM,14.3 ± 0.56 µM,"C=C(C)C1CCC2(C)CCC3(C)C(CCC4C5(C)CCC(OC(=O)NCCNC(=O)CN6C(=O)SC(=Cc7ccco7)C6=O)C(C)(C)C5CCC43C)C12 (stereo not drawn) [Compound 12g, Lupeol-3-[(1-Ethylenediaminyl)-4]-5-(2-Furanylmethylene)-2,4-Thiazolidinedione]",4.42,63.2 ± 1.31 µM
13.8 ± 0.76 µM,14.4 ± 0.72 µM,12.9 ± 0.52 µM,"C=C(C)C1CCC2(C)CCC3(C)C(CCC4C5(C)CCC(OC(=O)NCCNC(=O)CN6C(=O)SC(=Cc7ccccc7OC)C6=O)C(C)(C)C5CCC43C)C12 (stereo not drawn) [Compound 12e, Lupeol-3-[(1-Ethylenediaminyl)-4]-5-(2-Methoxybenzylidene)-2,4-Thiazolidinedione]",4.46,57.7 ± 1.14 µM
9.68 ± 0.52 µM,10 ± 0.22 µM,9.43 ± 0.78 µM,"C=C(C)C1CCC2(C)CCC3(C)C(CCC4C5(C)CCC(OC(=O)NCCNC(=O)CN6C(=O)SC(=Cc7ccc(OC)c(OC)c7OC)C6=O)C(C)(C)C5CCC43C)C12 (stereo not drawn) [Compound 12f, Lupeol-3-[(1-Ethylenediaminyl)-4]-5-(2,3,4-Trimethoxybenzylidene)-2,4-Thiazolidinedione]",3.77,35.53 ± 0.34 µM
